Assay results published in patent US4038308A, “Prostaglandin derivatives” (American Home Products Corporation, priority 1976, dated 1977).

What was measured:
[1] = test system: bronchoconstricting effects of a standard dose of acetylcholine; test: Bronchodilation upon aerosol inhalation in the guinea pig: inhibition of acetylcholine bronchoconstriction (method of Rosenthale et al.); format: in vivo; conditions: acetylcholine i.v. dose producing ca. 30% bronchoconstriction
Source text: In using the compounds of the invention to produce bronchodilating effects in warm-blooded animals, they may be administered in a variety of dosage forms: oral, injectable, and aerosol inhalation. Aerosol inhalation is a preferred method because of its rapid onset of action, great potency, and specificity of action. The particular dosage to obtain the bronchodilating effect will vary with the particular compound employed, the particular animal involved, and the degree of bronchodilation desired. In the guinea pig, by aerosol inhalation, the dose to produce bronchodilation is from about 0.15 micrograms to about 25 micrograms, and preferably from about 0.15 to about 15 micrograms. The bronchodilation produced upon aerosol inhalation can be observed by the method of Rosenthale et al., J. Pharmacol. Exp. Ther., 178, 541 (1971). Using this procedure the following results were obtained:
*The dose (i.v.) of acetylcholine which produces a ca. 30%

[2] = Hypotensive effect (blood pressure change) in the anesthetized dog, intravenous route; format: in vivo; conditions: dose 100 μg/kg., average of two animals
Method: In the use of the compounds of the invention to produce hypotensive effects in warm-blooded animals, administration by the injectable route is preferred, preferably the intravenous route.
Thus in the anesthetized dog by the intravenous route the dose to produce hypotension is from about 1 μg/kg. to about 200 μg/kg. and preferably from about 10 μg/kg. to about 100 μg/kg. Using this procedure the following results were obtained.

SMILES	Percent Inhibition of the bronchoconstricting effects of a standard dose of acetylcholine ([1]; dose 0.15 μg)	Percent Inhibition of the bronchoconstricting effects of a standard dose of acetylcholine ([1]; dose 1.50 μg)	Percent Inhibition of the bronchoconstricting effects of a standard dose of acetylcholine ([1]; dose 15 μg)	Percent Inhibition of the bronchoconstricting effects of a standard dose of acetylcholine ([1]; dose .015 μg)	Δ B.P. [2]
C#C[C@@H]1CC(=O)[C@H](CCCCCCC(=O)O)[C@H]1/C=C/[C@@H](O)CCCCC [3α-Ethynyl-2β-[(3S)-3-Hydroxy-Trans-1-Octenyl]-5-Oxo-1α-Cyclopentaneheptanoic Acid]	52%	58%	76%	28%	–
C#CC1CC(=O)[C@H](C/C=C\CCCC(=O)O)[C@H]1/C=C/C(O)(C#C)CCCCC (stereo partly drawn) [7-[(3RS)-3-Ethynyl-2β-[(3RS)-3-Ethynyl-3-Hydroxy-Trans-1-Octenyl]-5-Oxo-1α-Cyclopentyl]-Cis-5-Heptenoic Acid]	56%	86%	–	42%	-41 mm. mg
C#CC1CC(=O)[C@H](CCCCCCC(=O)O)[C@H]1/C=C/C(=O)CCCCC (stereo partly drawn) [(3RS)-3-Ethynyl-5-Oxo-2β-(3-Oxo-Trans-1-Octenyl)-1α-Cyclopentaneheptanoic Acid]	–	36%	75%	–	–
C#CC1CC(=O)[C@H](CCCCCCC(=O)O)[C@H]1/C=C/C(C)(O)CCCCC (stereo partly drawn) [(3RS)-3-Ethynyl-2β[(3RS)-3-Hydroxy-3-Methyl-Trans-1-Octenyl]-5-Oxo-1α-cyclopentane-Heptanoic Acid]	54%	56%	37%	–	-16 mm. mg
C#CC1CC(=O)[C@H](C/C=C\CCCC(=O)O)[C@H]1/C=C/[C@@H](O)CCCCC (stereo partly drawn) [7-([3RS]-3-Ethynyl-2β-[(3S)-3-Hydroxy-Trans-1-Octenyl]-5-Oxo-1α-Cyclopentyl)-Cis-5-Heptenoic Acid]	–	–	–	–	-31 mm. mg
C#CC1CC(=O)[C@H](C/C=C\CCCC(=O)O)[C@H]1/C=C/[C@H](O)CCCCC (stereo partly drawn) [7-([3RS]-3-Ethynyl-2β-[(3R)-3-Hydroxy-Trans-1-Octenyl]-5-Oxo-1β-Cyclopentyl)-Cis-5-Heptenoic Acid]	–	43%	68%	–	–
